Results on 11 molecules are retold here after patent publication US8178577B2, “Tricyclic derivatives as potent and selective histone deacetylase inhibitors” (Shenzhen Chipscreen Biosciences Ltd., priority 2008, dated 2012).

The test system of one test is HDAC Class I. The test can be described thus: P21 reporter gene assay in HeLa cells. In kind it is cell-based. Conditions: relative to SAHA, 24 hours. As for the experimental part:
(§1) HDAC subtype selectivity inhibition assay of tested compounds was carried out by several reporter gene assays experiments. Briefly, HeLa cells were seeded in 96-well plates the day before transfection to give a confluence of 50-80%. Cells were transfected with one of reporter gene plasmids containing a promoter sequences or response elements upstream of a luciferase gene construct using FuGene6 transfection reagent according to the manufacturer's instructions (Roche). The promoter or response elements including p21-promoter, gdf11-promoter, serum response element (SRE), MEF-binding element were fused upstream to the luciferase gene reporter construct. For normalizing the transfection efficiency, a GFP expression plasmid was cotransfected. Cells were allowed to express protein for 24 hours followed by addition of individual compounds or the vehicle (DMSO). 24 hours later the cells were harvested, and the luciferase assays were performed using the luciferase assay kit according to the manufacturer's instructions (Promega). To normalize the data from the luciferase assays, β-galactosidase activity from transfected cells was measured using a kit (Promega) as instructed by the manufacturer.

The target of another test is T1, HDAC7 (Homo sapiens, UniProt Q8WUI4).
T1 construct: endogenous in cells; host or cells: HeLa
T1 sequence (Q8WUI4 1-952): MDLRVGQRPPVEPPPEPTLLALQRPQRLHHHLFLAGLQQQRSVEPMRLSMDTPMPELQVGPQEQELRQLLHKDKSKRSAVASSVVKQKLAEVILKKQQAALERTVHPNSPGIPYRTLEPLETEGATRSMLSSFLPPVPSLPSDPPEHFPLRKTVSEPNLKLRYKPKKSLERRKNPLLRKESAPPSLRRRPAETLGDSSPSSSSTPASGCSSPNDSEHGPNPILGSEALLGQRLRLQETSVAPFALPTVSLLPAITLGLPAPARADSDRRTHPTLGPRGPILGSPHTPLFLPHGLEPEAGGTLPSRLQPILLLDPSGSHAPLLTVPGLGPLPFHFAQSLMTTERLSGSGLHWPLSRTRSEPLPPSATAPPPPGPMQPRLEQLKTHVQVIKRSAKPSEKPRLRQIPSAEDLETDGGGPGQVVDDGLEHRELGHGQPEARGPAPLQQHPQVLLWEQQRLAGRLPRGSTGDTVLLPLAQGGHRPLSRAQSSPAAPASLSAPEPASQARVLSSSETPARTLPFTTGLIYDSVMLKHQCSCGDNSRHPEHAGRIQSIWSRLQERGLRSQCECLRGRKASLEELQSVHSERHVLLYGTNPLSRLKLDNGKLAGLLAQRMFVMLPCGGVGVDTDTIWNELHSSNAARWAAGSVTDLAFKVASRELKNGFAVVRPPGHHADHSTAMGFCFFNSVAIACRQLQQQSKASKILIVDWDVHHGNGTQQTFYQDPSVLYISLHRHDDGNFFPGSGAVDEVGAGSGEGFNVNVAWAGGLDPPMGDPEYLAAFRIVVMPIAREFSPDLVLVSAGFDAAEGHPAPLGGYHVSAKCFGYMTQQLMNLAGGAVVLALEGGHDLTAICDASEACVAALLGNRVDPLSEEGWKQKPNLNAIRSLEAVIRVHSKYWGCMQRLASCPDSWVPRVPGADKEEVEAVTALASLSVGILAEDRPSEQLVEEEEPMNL
Put plainly: Nur77 reporter gene assay in HeLa cells. The following applies: for activation at 10 µM: HeLa, 24 h, read-out: % of SAHA Response for HDAC7 at 10 μM (Nur77 reporter gene). The test is classed as cell-based. The procedure:
as §1
A general note: In a reporter assay the amount or activity of a reporter protein is the signal.

The next test deals with total HDAC enzyme. The test can be described thus: In vitro inhibition of total HDAC enzyme activity (BIOMOL HDAC Fluorimetric Assay/Drug Discovery Kit, HeLa extract). In kind it is biochemical. The procedure: Measurement of In Vitro Inhibition of Total HDAC Enzyme Activity:
The in vitro inhibition of total HDAC enzyme was determined by HDAC Fluorimetric Assay/Drug Discovery Kit (BIOMOL) according to manufacture's instruction. • 1. Add Assay buffer, diluted trichostatin A or test inhibitor to appropriate wells of the microtiter plate. Following table lists examples of various assay types and the additions required for each test.
• 2. Add diluted HeLa extract or other HDAC sample to all wells except those that are to be “No Enzyme Controls” (Blank). • 3. Allow diluted Fluor de LYS™ Substrate and the samples in the microtiter plate to equilibrate to assay temperature (25° C.). • 4. Initiate HDAC reactions by adding diluted substrate (25 μl) to each well and mixing thoroughly. • 5. Allow HDAC reactions to proceed for desired length of time and then stop them by addition of Fluor de Lys™ Developer (50 μl). Incubate plate at room temperature (25° C.) for 10-15 min. • 6. Read samples in a microtiter-plate reading fluorimeter capable of excitation at a wavelength in the range 350-380 nm and detection of emitted light in the range 440-460 nm. Measurement of In Vivo Inhibition of HDAC Subtype Activity: […]

The next test deals with HDAC4/5. The test can be described thus: MEF2 reporter gene assay in HeLa cells. Conditions: relative to SAHA, 24 hours. The test is classed as cell-based. As for the experimental part: as §1
The target in the next test is T2, HDAC3 (Homo sapiens, UniProt O15379).
T2 construct: endogenous in cells; host or cells: HeLa
T2 sequence (O15379 whole entry): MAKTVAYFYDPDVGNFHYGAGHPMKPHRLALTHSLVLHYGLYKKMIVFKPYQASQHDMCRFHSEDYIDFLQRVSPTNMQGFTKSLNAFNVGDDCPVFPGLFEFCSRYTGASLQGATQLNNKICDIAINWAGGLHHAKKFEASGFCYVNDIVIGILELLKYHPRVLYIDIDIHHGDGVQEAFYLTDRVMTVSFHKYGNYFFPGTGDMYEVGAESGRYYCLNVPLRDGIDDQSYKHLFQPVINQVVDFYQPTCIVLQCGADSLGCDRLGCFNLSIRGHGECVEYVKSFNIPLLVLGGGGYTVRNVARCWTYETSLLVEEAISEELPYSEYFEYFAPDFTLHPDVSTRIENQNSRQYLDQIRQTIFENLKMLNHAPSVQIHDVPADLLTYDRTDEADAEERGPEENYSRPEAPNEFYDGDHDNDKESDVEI
T2 sequence (Q9Y618 whole entry partner): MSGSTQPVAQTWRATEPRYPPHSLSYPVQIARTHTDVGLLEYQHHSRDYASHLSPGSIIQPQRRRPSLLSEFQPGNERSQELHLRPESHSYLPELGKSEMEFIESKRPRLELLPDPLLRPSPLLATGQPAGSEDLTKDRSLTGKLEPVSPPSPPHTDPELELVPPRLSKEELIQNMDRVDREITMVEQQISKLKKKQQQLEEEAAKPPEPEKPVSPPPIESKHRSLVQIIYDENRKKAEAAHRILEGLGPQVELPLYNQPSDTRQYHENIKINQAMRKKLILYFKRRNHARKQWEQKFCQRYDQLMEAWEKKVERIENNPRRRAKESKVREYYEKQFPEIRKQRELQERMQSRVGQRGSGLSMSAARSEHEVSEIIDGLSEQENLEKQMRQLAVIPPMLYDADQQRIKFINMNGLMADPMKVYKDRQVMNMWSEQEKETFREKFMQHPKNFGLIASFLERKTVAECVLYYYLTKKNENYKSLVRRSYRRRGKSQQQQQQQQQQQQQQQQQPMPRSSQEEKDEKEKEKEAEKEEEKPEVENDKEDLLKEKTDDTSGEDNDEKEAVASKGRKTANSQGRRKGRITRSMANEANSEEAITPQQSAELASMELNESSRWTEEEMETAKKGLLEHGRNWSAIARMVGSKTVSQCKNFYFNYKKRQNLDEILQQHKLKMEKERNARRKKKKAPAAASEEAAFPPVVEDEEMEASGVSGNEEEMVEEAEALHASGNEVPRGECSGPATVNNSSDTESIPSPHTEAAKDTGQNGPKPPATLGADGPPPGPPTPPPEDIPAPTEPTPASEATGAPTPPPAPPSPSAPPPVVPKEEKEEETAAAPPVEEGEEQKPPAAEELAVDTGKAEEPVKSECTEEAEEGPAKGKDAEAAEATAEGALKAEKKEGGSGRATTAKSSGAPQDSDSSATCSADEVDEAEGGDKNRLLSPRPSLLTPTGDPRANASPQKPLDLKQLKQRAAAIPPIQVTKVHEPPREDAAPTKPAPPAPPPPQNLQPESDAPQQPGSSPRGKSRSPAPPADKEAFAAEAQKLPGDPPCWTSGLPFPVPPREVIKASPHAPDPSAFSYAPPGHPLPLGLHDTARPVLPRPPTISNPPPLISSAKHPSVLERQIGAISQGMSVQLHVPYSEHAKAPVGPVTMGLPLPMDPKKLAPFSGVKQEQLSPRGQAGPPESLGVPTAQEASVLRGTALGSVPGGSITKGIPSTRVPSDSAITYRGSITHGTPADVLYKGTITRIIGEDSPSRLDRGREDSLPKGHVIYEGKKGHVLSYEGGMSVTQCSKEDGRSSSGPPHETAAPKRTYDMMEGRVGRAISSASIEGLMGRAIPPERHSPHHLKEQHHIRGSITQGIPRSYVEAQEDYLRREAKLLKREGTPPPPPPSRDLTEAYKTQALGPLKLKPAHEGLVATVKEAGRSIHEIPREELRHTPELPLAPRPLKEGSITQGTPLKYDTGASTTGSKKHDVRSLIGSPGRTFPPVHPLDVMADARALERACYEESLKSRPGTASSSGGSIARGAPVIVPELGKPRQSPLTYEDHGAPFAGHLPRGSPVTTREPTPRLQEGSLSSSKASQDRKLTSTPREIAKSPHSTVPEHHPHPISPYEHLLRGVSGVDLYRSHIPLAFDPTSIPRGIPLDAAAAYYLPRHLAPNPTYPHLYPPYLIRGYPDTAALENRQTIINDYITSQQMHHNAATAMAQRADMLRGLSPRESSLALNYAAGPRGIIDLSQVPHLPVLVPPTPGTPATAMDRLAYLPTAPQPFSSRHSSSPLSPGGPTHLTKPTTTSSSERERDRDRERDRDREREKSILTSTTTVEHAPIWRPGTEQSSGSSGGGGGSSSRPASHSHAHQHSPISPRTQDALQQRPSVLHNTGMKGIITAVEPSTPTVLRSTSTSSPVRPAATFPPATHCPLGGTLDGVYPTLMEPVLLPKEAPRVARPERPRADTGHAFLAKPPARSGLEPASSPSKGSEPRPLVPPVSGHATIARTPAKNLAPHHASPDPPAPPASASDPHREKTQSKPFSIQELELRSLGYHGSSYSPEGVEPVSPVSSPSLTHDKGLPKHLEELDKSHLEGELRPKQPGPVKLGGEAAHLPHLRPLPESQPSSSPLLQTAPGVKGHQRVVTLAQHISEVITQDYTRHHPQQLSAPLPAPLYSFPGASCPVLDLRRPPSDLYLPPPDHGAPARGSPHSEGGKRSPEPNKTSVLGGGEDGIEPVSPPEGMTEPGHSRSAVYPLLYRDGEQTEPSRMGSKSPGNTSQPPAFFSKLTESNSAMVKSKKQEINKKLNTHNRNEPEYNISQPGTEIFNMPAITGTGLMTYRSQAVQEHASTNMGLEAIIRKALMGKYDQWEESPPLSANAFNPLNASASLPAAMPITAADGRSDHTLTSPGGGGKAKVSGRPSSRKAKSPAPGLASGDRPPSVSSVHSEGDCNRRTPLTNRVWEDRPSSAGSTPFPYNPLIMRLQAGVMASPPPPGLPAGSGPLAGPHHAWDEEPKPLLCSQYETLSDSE
Put plainly: gdf11 reporter gene assay in HeLa cells. The following applies: for activation at 10 µM: HeLa, 24 h, read-out: % of SAHA Response for HDAC3 at 10 μM (gdf11 reporter gene). The test is classed as cell-based. As for the experimental part: as §1

Another test deals with HL60. The test can be described thus: Cell proliferation (MTS), HL60. The test is classed as cell-based. The following applies: Homo sapiens, HL-60, 72 hours. As for the experimental part: (§2) Measurement of In Vivo Cell Proliferation:
(§3) Tumor cells were trypsinized and plated into 96-well plates at 3,000 per well and incubated in complete medium with 10% FBS for 24 hours. Compounds were added over a final concentration range of 100 μmol/L to 100 nmol/L in 0.1% DMSO and incubated for 72 hours in complete medium. The effects on proliferation were determined by addition of MTS reagent (Promega) according to the instruction, incubation for 2 hours at 37° C. in CO2 incubator, and record the absorbance at 490 nm using an ELISA plate reader.

A further test relates to Hut-78. The test can be described thus: Cell proliferation (MTS), Hut-78. In kind it is cell-based. Conditions: Homo sapiens, HuT78, 72 hours. As for the experimental part:
as §2, §3

In the next test the test system is A549. The test can be described thus: Cell proliferation (MTS), A549. The test is classed as cell-based. Conditions: Homo sapiens, 72 hours. The procedure: as §2, §3
The next test relates to HeLa. Put plainly: Cell proliferation (MTS), HeLa. The test is classed as cell-based. Conditions: Homo sapiens, 72 hours. As for the experimental part:
as §2, §3

For the molecule `Nc1ccccc1NC(=O)CCCCNC(=O)C=C1c2ccccc2-c2ccccc21` [Example 7, 5-(2-(9H-fluoren-9-ylidene)acetamido)-N-(2-aminophenyl)pentanamide], the “% of SAHA Response for HDAC Class I at 10 μM (P21 reporter gene)” value (“% of SAHA Response for HDAC Class I” for short) in the test with HDAC Class I is on record as 49%. In addition, the figures for the activation at 10 µM on HDAC7 and on HDAC3 were 19% and 36%, respectively. Also, the “% of Inhibition on total HDAC enzyme at 30 μM” value (“% of Inhibition” below) in the test with total HDAC enzyme was 42%. Also, the “% of SAHA Response for HDAC4/5 at 10 μM (MEF2 reporter gene)” value (“% of SAHA Response for HDAC4/5 at 10 μM” below) with HDAC4/5 stood at 31%.
Consider `Nc1cc(F)ccc1NC(=O)CCCCNC(=O)C=C1c2ccccc2-c2ccccc21` [Example 8, 5-(2-(9H-fluoren-9-ylidene)acetamido)-N-(2-amino-4-fluorophenyl)pentanamide], for which the “% of SAHA Response for HDAC Class I” value with HDAC Class I came to 16%. Besides, the activation at 10 µM at HDAC7 worked out at 7%; on HDAC3, 10%. Besides, the “% of Inhibition” value in the test with total HDAC enzyme was determined as 31.7%. Besides, the “% of SAHA Response for HDAC4/5 at 10 μM” value in the test on HDAC4/5 was 30%.
With `O=C(C=C1c2ccccc2-c2ccccc21)NCCCCCC(=O)NO` [Example 11, 6-(2-(9H-fluoren-9-ylidene)acetamido)-N-hydroxyhexanamide], the “% of SAHA Response for HDAC Class I” value in the test on HDAC Class I was 77%. Also, the GI50 (commonly the concentration that inhibits growth by half) in the test with HL60 is below 0.1 µM; in the test on Hut-78 it was below 0.1 µM; with A549, 2.34 µM; with HeLa, 0.52 µM. Also, the “% of Inhibition” value in the test on total HDAC enzyme is 99%.
As to `Nc1cc(Cl)ccc1NC(=O)CCCCCNC(=O)C=C1c2ccccc2-c2ccccc21` [Example 14, 6-(2-(9H-fluoren-9-ylidene)acetamido)-N-(2-amino-4-chlorophenyl)hexanamide], the “% of SAHA Response for HDAC Class I” value in the test with HDAC Class I worked out at 13%. The results for the activation at 10 µM on HDAC7 and on HDAC3 were 4% and 6%, respectively. The “% of SAHA Response for HDAC4/5 at 10 μM” value in the test on HDAC4/5 stood at 9%.
As for `Cc1ccc(NC(=O)CCCCCNC(=O)C=C2c3ccccc3-c3ccccc32)c(N)c1` [Example 15, 6-(2-(9H-fluoren-9-ylidene)acetamido)-N-(2-amino-4-methylphenyl)hexanamide], the “% of SAHA Response for HDAC Class I” value in the test with HDAC Class I turned out to be 21%. Besides, the activation at 10 µM on HDAC7 is 4%; at HDAC3, 14%. For the same molecule, the “% of Inhibition” value in the test with total HDAC enzyme amounted to 42.4%. Moreover, the “% of SAHA Response for HDAC4/5 at 10 μM” value in the test on HDAC4/5 worked out at 15%.
The like results for `COc1ccc(NC(=O)CCCCCNC(=O)C=C2c3ccccc3-c3ccccc32)c(N)c1` [Example 16, 6-(2-(9H-fluoren-9-ylidene)acetamido)-N-(2-amino-4-methoxyphenyl)hexanamide] were, in that order, 21%, 10%, 12%, 29.2% and 27%.
For `Nc1cc(C(F)(F)F)ccc1NC(=O)CCCCCNC(=O)C=C1c2ccccc2-c2ccccc21` [Example 17, 6-(2-(9H-fluoren-9-ylidene)acetamido)-N-(2-amino-4-trifluoromethylphenyl)hexanamide], in the test on HDAC Class I, the “% of SAHA Response for HDAC Class I” value is on record as 12%. Further, the activation at 10 µM on HDAC7 and on HDAC3 was 7% in each case. The “% of Inhibition” value with total HDAC enzyme turned out to be 24.1%. Besides, the “% of SAHA Response for HDAC4/5 at 10 μM” value in the test with HDAC4/5 turned out to be 21%.
Turning to `O=C(C=C1c2ccccc2-c2ccccc21)NCCCCCCCC(=O)NO` [Example 26, 8-(2-(9H-fluoren-9-ylidene)acetamido)-N-hydroxyoctanamide], the “% of SAHA Response for HDAC Class I” value in the test with HDAC Class I was found to be 61%. In addition, the activation at 10 µM at HDAC7 worked out at 89%; on HDAC3 it was 70%. For the same molecule, in the test on total HDAC enzyme, the “% of Inhibition” value came to 99.3%. Besides, in the test on HDAC4/5, the “% of SAHA Response for HDAC4/5 at 10 μM” value worked out at 87%.
As to `Nc1cc(F)ccc1NC(=O)CCCCCCCNC(=O)C=C1c2ccccc2-c2ccccc21` [Example 27, 8-(2-(9H-fluoren-9-ylidene)acetamido)-N-(2-amino-4-fluorophenyl)octanamide], the “% of SAHA Response for HDAC Class I” value in the test with HDAC Class I amounted to 18%. Besides, the activation at 10 µM on HDAC7 is 7%; on HDAC3 it was 12%. The “% of Inhibition” value with total HDAC enzyme is listed as 42.3%. For the same molecule, in the test on HDAC4/5, the “% of SAHA Response for HDAC4/5 at 10 μM” value came to 16%.
For the molecule `Nc1ccccc1NC(=O)CCCCCCCNC(=O)C=C1c2ccccc2-c2ccccc21` [Example 28, 8-(2-(9H-fluoren-9-ylidene)acetamido)-N-(2-aminophenyl)octanamide], the “% of SAHA Response for HDAC Class I” value in the test on HDAC Class I worked out at 62%. Moreover, the activation at 10 µM on HDAC7 was 20%; on HDAC3, 33%. Also, in the test on total HDAC enzyme, the “% of Inhibition” value amounted to 48%. In addition, the “% of SAHA Response for HDAC4/5 at 10 μM” value with HDAC4/5 was found to be 38%.
With `O=C(CCCCCCC(=O)Nc1ccccc1)NO` [SAHA, suberoylanilide hydroxamic acid, reference compound], the “% of SAHA Response for HDAC Class I” value with HDAC Class I worked out at 100%. In addition, the “% of SAHA Response for HDAC7 at 10 μM (Nur77 reporter gene)” value at HDAC7 was found to be 100%. Further, in the test with HDAC4/5, the “% of SAHA Response for HDAC4/5 at 10 μM” value is 100%. Moreover, the “% of SAHA Response for HDAC3 at 10 μM (gdf11 reporter gene)” value on HDAC3 (10 μM, relative to SAHA, HeLa cells, 24 hours) was determined as 100%.
